In one experiment the target is dynamin I (Ovis aries, UniProt A0ACI6NZN1). The experiment can be described thus: [α-32P]-GTP binding assay, dynamin I. More on the design: species or system sheep. The protocol:
(§1) The [α-^32P]-GTP-binding assay was performed in the wells of a 96-well microtitre plate. Dynamin (0.2 μg/well) was added to GTPase buffer and incubated for 10 min at 4 C in the dark. [α-^32P]-GTP (2 μCi/tube) was then added to the reaction and incubated for a further 10 min at 4 C. in the dark. The microtitre plate was then irradiated with a short wavelength ultraviolet lamp at […] for 30 min at a distance of 8 cm. The specificity of photolabelling was determined by comparing the labelling in the presence and absence of 1 mM cold GTP. Samples were then applied to nitrocellulose membranes by aspiration through the wells of a 24 well slot blotter. The nitrocellulose was washed 3 times with PBS and dried. Bound nucleotide was detected by a phosphorimager (Molecular Dynamics).

In the next experiment the target is T1, RalA (Homo sapiens, UniProt P11233).
T1 sequence (P11233 1-206): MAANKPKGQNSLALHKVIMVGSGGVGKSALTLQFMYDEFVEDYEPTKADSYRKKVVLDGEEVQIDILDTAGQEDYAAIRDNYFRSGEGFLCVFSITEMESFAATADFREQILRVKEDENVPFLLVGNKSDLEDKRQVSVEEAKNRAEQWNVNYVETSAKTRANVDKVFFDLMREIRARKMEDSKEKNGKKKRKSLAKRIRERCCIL
The experiment can be described thus: [α-32P]-GTP binding to small G protein RalA. The following applies: data not shown. As to the method: (§2) Competition of these drugs with GTP for the active site of 4 small G proteins (Rab3A, Ras, Arf2, RalA) was also tested.

The next experiment has as its target T2, Rab3A (Homo sapiens, UniProt P20336).
T2 sequence (P20336 1-220): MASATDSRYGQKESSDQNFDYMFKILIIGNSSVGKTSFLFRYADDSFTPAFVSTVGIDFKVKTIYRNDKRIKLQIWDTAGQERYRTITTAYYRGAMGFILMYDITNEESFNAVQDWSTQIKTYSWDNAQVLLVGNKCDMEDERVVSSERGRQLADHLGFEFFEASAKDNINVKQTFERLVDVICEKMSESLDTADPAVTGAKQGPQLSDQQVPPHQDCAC
The experiment can be described thus: [α-32P]-GTP binding to small G protein Rab3A. The following applies: data not shown. The protocol: as §2

Experiment [1] addresses T3, dynamin II (Rattus norvegicus, UniProt P39052).
T3 construct: made in house; host or cells: insect cells
T3 sequence (P39052 1-870): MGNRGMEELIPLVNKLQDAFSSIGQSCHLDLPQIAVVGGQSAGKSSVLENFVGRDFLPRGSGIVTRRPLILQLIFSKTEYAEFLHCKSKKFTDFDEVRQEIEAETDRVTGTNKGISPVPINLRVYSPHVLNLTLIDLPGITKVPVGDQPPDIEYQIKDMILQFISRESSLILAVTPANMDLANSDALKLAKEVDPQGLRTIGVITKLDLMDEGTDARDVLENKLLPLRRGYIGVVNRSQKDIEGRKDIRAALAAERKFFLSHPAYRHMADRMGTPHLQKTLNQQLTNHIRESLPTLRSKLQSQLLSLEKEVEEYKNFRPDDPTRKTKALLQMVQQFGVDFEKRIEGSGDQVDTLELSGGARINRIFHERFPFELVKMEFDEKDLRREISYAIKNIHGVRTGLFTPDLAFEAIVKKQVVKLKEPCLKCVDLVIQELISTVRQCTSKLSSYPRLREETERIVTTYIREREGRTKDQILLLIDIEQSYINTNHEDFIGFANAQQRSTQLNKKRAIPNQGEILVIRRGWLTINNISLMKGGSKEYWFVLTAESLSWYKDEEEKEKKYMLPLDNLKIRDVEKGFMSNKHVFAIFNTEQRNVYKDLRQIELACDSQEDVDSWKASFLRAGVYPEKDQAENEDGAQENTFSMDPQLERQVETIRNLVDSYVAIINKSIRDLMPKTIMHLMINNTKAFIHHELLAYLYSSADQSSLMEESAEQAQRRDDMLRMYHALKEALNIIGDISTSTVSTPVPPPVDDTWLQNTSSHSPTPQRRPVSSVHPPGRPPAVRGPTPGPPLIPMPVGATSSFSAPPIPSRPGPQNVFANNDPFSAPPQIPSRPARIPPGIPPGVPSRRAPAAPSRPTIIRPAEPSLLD
The experiment is described as follows: Dynamin II GTPase assay ([γ-32P]GTP hydrolysis). Type of experiment: biochemical. The following applies: GTPase activity, FIG. 1e. The protocol: (§3) The plasmid for GST-Amph2-SH3 (muscle Amph2) (Butler et al., 1997) was provided by Pieto DeCamilli, Yale, Connecticut, USA, in pGEX2T vectors. The plasmid was grown in E. coli and the GST-Amph2-SH3 fusion protein was purified on glutathione (GSH)-Sepharose by elution with 10 mM reduced GSH in 20 mM Tris-HCl, pH 7.5, dialysed against the same buffer without GSH and stored at 4° C. Dynamin was purified from sheep brain by extraction from the peripheral membrane fraction of whole brain (Robinson et al., 1993) and affinity purification on GST-Amph2-SH3-sepharose as previously described (Marks and McMahon., 1998), yielding 8 mg protein from 250 g sheep brain. Recombinant dynamin II was expressed in insect cells and was a gift from Dr Sandra Schmid (Scripps, San Diego, Calif.). Recombinant dynamin I lacking the PH domain (dynamin PH, provided by Robin Scaife) was expressed in insect cells using baculoviral infection (Salim et al., 1996).
Dynamin GTPase activity was determined by hydrolysis of [ ? -^32P]GTP by a method modified from that described previously (Robinson et al., 1993). […] Dynamin activity was measured as either basal or phospholipid-stimulated with the addition of 5 μg/ml L-phosphatidylserine. […] After centrifuging for 5 min (13,000 rpm at room temperature), 200 μl of each supernatant was counted in a -counter for the release of ^32Pi from [ ? -^32P]-GTP.

The subject of experiment [2] is dynamin II. The experiment can be described thus: [α-32P]-GTP binding assay, dynamin II. The protocol: as §1
The next experiment relates to ΔPH domain dynamin I. The experiment can be described thus: GTPase assay with recombinant dynamin I lacking the PH domain. Type of experiment: biochemical. As to the method:
as §3
Dynamin GTPase activity was determined by hydrolysis of [ ? -^32P]GTP by a method modified from that described previously (Robinson et al., 1993). Briefly, purified dynamin I or dynamin II (0.2 μg/tube) was incubated in GTPase buffer (10 mM Tris, 10 mM NaCl, 2 mM Mg^2+, 0.05% Tween 80, pH 7.4, 1 μg/ml leupeptin and 0.1 mM PMSF) and a GTP cocktail containing 0.3 mM GTP and 1.3 μCi [ ? -^32P]-GTP in the presence or absence of varying concentrations of inhibitors or DMSO vehicle for 10 min at 30 C. The final assay volume was 40 μl. Dynamin activity was measured as either basal or phospholipid-stimulated with the addition of 5 μg/ml L-phosphatidylserine. The reaction was terminated with 100 μl of GTPase stop buffer (2% formic add, 8% acetic acid, pH 1.9), followed by 600 μl of acid-washed charcoal solution (7% charcoal in acidic solution (w/v)) and 100 μl BSA (5 mg/ml). After centrifuging for 5 min (13,000 rpm at room temperature), 200 μl of each supernatant was counted in a -counter for the release of ^32Pi from [ ? -^32P]-GTP. […]

Entries after “also recorded” stand apart in the source; their conditions may differ.

dynamin I, sequence (A0ACI6NZN1 entry or part of it): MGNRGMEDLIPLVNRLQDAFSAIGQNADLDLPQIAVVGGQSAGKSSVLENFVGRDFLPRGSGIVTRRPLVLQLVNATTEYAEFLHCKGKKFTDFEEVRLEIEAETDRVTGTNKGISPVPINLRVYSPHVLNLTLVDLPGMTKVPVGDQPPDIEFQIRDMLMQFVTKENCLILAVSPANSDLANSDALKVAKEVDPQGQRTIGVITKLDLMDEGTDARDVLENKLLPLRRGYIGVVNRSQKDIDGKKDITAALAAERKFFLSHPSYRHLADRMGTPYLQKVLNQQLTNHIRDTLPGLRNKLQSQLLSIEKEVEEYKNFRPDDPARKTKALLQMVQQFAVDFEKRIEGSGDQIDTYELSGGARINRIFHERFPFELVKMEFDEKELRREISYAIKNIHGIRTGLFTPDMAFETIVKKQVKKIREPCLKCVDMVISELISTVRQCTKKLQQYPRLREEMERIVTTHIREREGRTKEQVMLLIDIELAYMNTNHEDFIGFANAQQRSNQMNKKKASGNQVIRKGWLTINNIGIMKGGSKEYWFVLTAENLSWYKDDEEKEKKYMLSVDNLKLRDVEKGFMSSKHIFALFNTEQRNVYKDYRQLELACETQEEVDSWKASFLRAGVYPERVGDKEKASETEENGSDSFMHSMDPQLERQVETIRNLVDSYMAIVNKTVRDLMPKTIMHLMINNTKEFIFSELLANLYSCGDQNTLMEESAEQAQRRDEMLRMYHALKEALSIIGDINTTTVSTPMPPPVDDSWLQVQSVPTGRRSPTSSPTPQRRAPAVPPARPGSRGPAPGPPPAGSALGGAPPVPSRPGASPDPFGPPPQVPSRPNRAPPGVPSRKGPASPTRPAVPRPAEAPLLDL

As for `N#C/C(=C\c1ccc(O)c(O)c1)C(=O)NCCCNC(=O)/C(C#N)=C/c1ccc(O)c(O)c1` [bis-tyrphostin], the “[α-32P]-GTP binding to dynamin I in the presence of drug” value on dynamin I is reported as “not seen to decrease; also recorded: not affected”. In addition, the “effect on [α-32P]-GTP binding to RalA” value on RalA is on record as “neither drug affected”. The “effect on [α-32P]-GTP binding to Rab3A” value at Rab3A is reported as “neither drug affected”. At dynamin II [1], this molecule came in with an IC50 of 500 nM. For the same molecule, in the experiment on dynamin II [2], the “[α-32P]-GTP binding to dynamin II in the presence of drug” value is reported as “not seen to decrease; also recorded: not affected”. The “ability to inhibit GTPase activity of dynamin I lacking the PH domain” value in the experiment on ΔPH domain dynamin I is reported as “still inhibits”. In the experiment on ΔPH domain dynamin I (at 10 μM), the “inhibition of ΔPH domain dynamin I GTP hydrolysis” value was “more than 50%”.

These data come from patent US20070225363A1, “Methods and Agents for Inhibiting Dynamin-Dependent Endocytosis” (the University of Newcastle Research Associates Ltd., priority 2003, published 2007).
